Reference: US12102089B2, “Method for inactivating mold spores” (DSM IP ASSETS B.V., priority 2017, dated 2024)

Tested on: Paecilomyces variotti (ATCC 22319)
Experiment: Heat treatment of Paecilomyces variotti spores in ice tea with natamycin, visual growth
Format: cell-based
Set-up: key to growth (+) or no growth (−): growth (+); no growth (−)
Description: Commercially available ice tea (Lipton, peach flavor, non-carbonated, 1.5 L) was adjusted to high water hardness by adding 1 ml of a solution of 39 g CaCl2 and 27 g MgCl2 added to 934 g water. ⅓ of this ice tea preparation (the pH of which was 3.15) was left as-such, ⅓ of the preparation was enriched with 5 ppm natamycin and ⅓ of the preparation was enriched with 10 ppm natamycin. Samples of 5 ml were made from each preparation in 15 ml sterile plastic tubes. Of each preparation 8 samples were pre-heated to the desired pasteurization temperature using a water bath. Temperatures used were RT, 60, 65, 70, 75, 80, 85 and 90° C. When the desired temperature was reached, 100 μl of a 2500 spores/ml spore suspension of Aspergillus niger ATCC 9029AA was added to each tube. Subsequently, the samples were kept for 30 seconds at the temperature in question in the water bath. Next, the samples were cooled on ice to a temperature of 25° C. Samples were incubated at 25° C. and visually examined for growth (formation of mold flakes or turbidity) for two months. Additionally, samples were enumerated according to ISO protocol 21527-1.2008 on day 0 (before heat treatment) and day 1 (after heat treatment) to count immediate loss of viability. […] For the results, see Table 1. […] Example 1 was repeated however with Paecilomyces variotti (ATCC 22319, 1000 spores/ml) instead of Aspergillus niger.

## C[C@@H]1C/C=C/C=C/C=C/C=C/[C@H](O[C@@H]2O[C@H](C)[C@@H](O)[C@H](N)[C@@H]2O)C[C@@H]2O[C@](O)(C[C@@H](O)C[C@H]3O[C@@H]3/C=C/C(=O)O1)C[C@H](O)[C@H]2C(=O)O [natamycin]
90° C., in the presence of natamycin
  germination: no germination occurred
RT and 60° C., 5 or 10 ppm natamycin
  germination: delayed germination
T 60, natamycin 5 ppm, day 1
  growth (+) or no growth (−): −
T 60, natamycin 5 ppm, day 2
  growth (+) or no growth (−): −
T 60, natamycin 5 ppm, day 3
  growth (+) or no growth (−): −
T 60, natamycin 5 ppm, day 4
  growth (+) or no growth (−): −
T 60, natamycin 5 ppm, day 5
  growth (+) or no growth (−): −
T 60, natamycin 5 ppm, day 6
  growth (+) or no growth (−): −
T 60, natamycin 5 ppm, day 7
  growth (+) or no growth (−): −
T 60, natamycin 5 ppm, day 8
  growth (+) or no growth (−): −
T 60, natamycin 5 ppm, day 9
  growth (+) or no growth (−): −
T 60, natamycin 5 ppm, day 10
  growth (+) or no growth (−): +
T 60, natamycin 5 ppm, day 11
  growth (+) or no growth (−): +
T 60, natamycin 5 ppm, day 12
  growth (+) or no growth (−): +
T 60, natamycin 5 ppm, day 13
  growth (+) or no growth (−): +
T 60, natamycin 5 ppm, day 14
  growth (+) or no growth (−): +
T 60, natamycin 5 ppm, day 15
  growth (+) or no growth (−): +
T 60, natamycin 5 ppm, day 16
  growth (+) or no growth (−): +
T 60, natamycin 5 ppm, day 17
  growth (+) or no growth (−): +
T 60, natamycin 5 ppm, day 50
  growth (+) or no growth (−): +
T 60, natamycin 10 ppm, day 1
  growth (+) or no growth (−): −
T 60, natamycin 10 ppm, day 2
  growth (+) or no growth (−): −
T 60, natamycin 10 ppm, day 3
  growth (+) or no growth (−): −
T 60, natamycin 10 ppm, day 4
  growth (+) or no growth (−): −
T 60, natamycin 10 ppm, day 5
  growth (+) or no growth (−): −
T 60, natamycin 10 ppm, day 6
  growth (+) or no growth (−): −
T 60, natamycin 10 ppm, day 7
  growth (+) or no growth (−): −
T 60, natamycin 10 ppm, day 8
  growth (+) or no growth (−): −
T 60, natamycin 10 ppm, day 9
  growth (+) or no growth (−): −
T 60, natamycin 10 ppm, day 10
  growth (+) or no growth (−): −
T 60, natamycin 10 ppm, day 11
  growth (+) or no growth (−): −
T 60, natamycin 10 ppm, day 12
  growth (+) or no growth (−): −
T 60, natamycin 10 ppm, day 13
  growth (+) or no growth (−): −
T 60, natamycin 10 ppm, day 14
  growth (+) or no growth (−): +
T 60, natamycin 10 ppm, day 15
  growth (+) or no growth (−): +
T 60, natamycin 10 ppm, day 16
  growth (+) or no growth (−): +
T 60, natamycin 10 ppm, day 17
  growth (+) or no growth (−): +
T 60, natamycin 10 ppm, day 50
  growth (+) or no growth (−): +
T 65, natamycin 5 ppm, day 1
  growth (+) or no growth (−): −
T 65, natamycin 5 ppm, day 2
  growth (+) or no growth (−): −
T 65, natamycin 5 ppm, day 3
  growth (+) or no growth (−): −
T 65, natamycin 5 ppm, day 4
  growth (+) or no growth (−): −
T 65, natamycin 5 ppm, day 5
  growth (+) or no growth (−): −
T 65, natamycin 5 ppm, day 6
  growth (+) or no growth (−): −
T 65, natamycin 5 ppm, day 7
  growth (+) or no growth (−): −
T 65, natamycin 5 ppm, day 8
  growth (+) or no growth (−): −
T 65, natamycin 5 ppm, day 9
  growth (+) or no growth (−): −
T 65, natamycin 5 ppm, day 10
  growth (+) or no growth (−): −
T 65, natamycin 5 ppm, day 11
  growth (+) or no growth (−): −
T 65, natamycin 5 ppm, day 12
  growth (+) or no growth (−): −
T 65, natamycin 5 ppm, day 13
  growth (+) or no growth (−): −
T 65, natamycin 5 ppm, day 14
  growth (+) or no growth (−): −
T 65, natamycin 5 ppm, day 15
  growth (+) or no growth (−): −
T 65, natamycin 5 ppm, day 16
  growth (+) or no growth (−): −
T 65, natamycin 5 ppm, day 17
  growth (+) or no growth (−): −
T 65, natamycin 5 ppm, day 50
  growth (+) or no growth (−): −
T 65, natamycin 10 ppm, day 1
  growth (+) or no growth (−): −
T 65, natamycin 10 ppm, day 2
  growth (+) or no growth (−): −
T 65, natamycin 10 ppm, day 3
  growth (+) or no growth (−): −
T 65, natamycin 10 ppm, day 4
  growth (+) or no growth (−): −
T 65, natamycin 10 ppm, day 5
  growth (+) or no growth (−): −
T 65, natamycin 10 ppm, day 6
  growth (+) or no growth (−): −
T 65, natamycin 10 ppm, day 7
  growth (+) or no growth (−): −
T 65, natamycin 10 ppm, day 8
  growth (+) or no growth (−): −
T 65, natamycin 10 ppm, day 9
  growth (+) or no growth (−): −
T 65, natamycin 10 ppm, day 10
  growth (+) or no growth (−): −
T 65, natamycin 10 ppm, day 11
  growth (+) or no growth (−): −
T 65, natamycin 10 ppm, day 12
  growth (+) or no growth (−): −
T 65, natamycin 10 ppm, day 13
  growth (+) or no growth (−): −
T 65, natamycin 10 ppm, day 14
  growth (+) or no growth (−): −
T 65, natamycin 10 ppm, day 15
  growth (+) or no growth (−): −
T 65, natamycin 10 ppm, day 16
  growth (+) or no growth (−): −
T 65, natamycin 10 ppm, day 17
  growth (+) or no growth (−): −
T 65, natamycin 10 ppm, day 50
  growth (+) or no growth (−): −
T 70, natamycin 5 ppm, day 1
  growth (+) or no growth (−): −
T 70, natamycin 5 ppm, day 2
  growth (+) or no growth (−): −
T 70, natamycin 5 ppm, day 3
  growth (+) or no growth (−): −
T 70, natamycin 5 ppm, day 4
  growth (+) or no growth (−): −
T 70, natamycin 5 ppm, day 5
  growth (+) or no growth (−): −
T 70, natamycin 5 ppm, day 6
  growth (+) or no growth (−): −
T 70, natamycin 5 ppm, day 7
  growth (+) or no growth (−): −
T 70, natamycin 5 ppm, day 8
  growth (+) or no growth (−): −
T 70, natamycin 5 ppm, day 9
  growth (+) or no growth (−): −
T 70, natamycin 5 ppm, day 10
  growth (+) or no growth (−): −
T 70, natamycin 5 ppm, day 11
  growth (+) or no growth (−): −
T 70, natamycin 5 ppm, day 12
  growth (+) or no growth (−): −
T 70, natamycin 5 ppm, day 13
  growth (+) or no growth (−): −
T 70, natamycin 5 ppm, day 14
  growth (+) or no growth (−): −
T 70, natamycin 5 ppm, day 15
  growth (+) or no growth (−): −
T 70, natamycin 5 ppm, day 16
  growth (+) or no growth (−): −
T 70, natamycin 5 ppm, day 17
  growth (+) or no growth (−): −
T 70, natamycin 5 ppm, day 50
  growth (+) or no growth (−): −
T 70, natamycin 10 ppm, day 9
  growth (+) or no growth (−): −
T 70, natamycin 10 ppm, day 10
  growth (+) or no growth (−): −
T 70, natamycin 10 ppm, day 11
  growth (+) or no growth (−): −
T 70, natamycin 10 ppm, day 12
  growth (+) or no growth (−): −
T 70, natamycin 10 ppm, day 13
  growth (+) or no growth (−): −
T 70, natamycin 10 ppm, day 14
  growth (+) or no growth (−): −
T 70, natamycin 10 ppm, day 15
  growth (+) or no growth (−): −
T 70, natamycin 10 ppm, day 16
  growth (+) or no growth (−): −
T 70, natamycin 10 ppm, day 17
  growth (+) or no growth (−): −
T 70, natamycin 10 ppm, day 50
  growth (+) or no growth (−): −
